# Data reported in patent US20080039422A1, “Vitamin B12-Containing Compositions and Methods of Use” (Transition Therapeutics Inc., priority 2004, published 2008).
# Assay: Hydroxocobalamin-containing solutions
# Type: physicochemical
# Description: A variety of solutions containing hydroxocobalamin (HO-Cbl) were tested. The excipients tested in these studies were the same as those used above: (a) 15% ethanol; (b) 20% ethanol; (c) 20% propylene glycol; (d) 40% propylene glycol; (e) 15% ethanol and 20% propylene glycol; and (f) 20% ethanol and 40% propylene glycol. Here, however, three challenge amounts were tested (˜16, 40, and 81 mg/ml HO-Cbl) and the time course was slightly longer, with measurements being made on Day 3 and Day 5. The OH-Cbl was solubilized at room temperature, as it dissolved readily in the excipients tested. If necessary or desired, the solutions can be mixed by shaking briefly (using, for example, a vortex or other agitation for a few seconds (e.g., 5-20 seconds) to a minute or so (e.g., 1-3 minutes). Following suitable dilution, the absorbance at […] was measured.
compound,measurement,setting,value
"C/C1=C2/[N-][C@H]([C@H](CC(N)=O)[C@@]2(C)CCC(=O)NC[C@@H](C)OP(=O)([O-])O[C@H]2[C@@H](O)[C@@H](n3cnc4cc(C)c(C)cc43)O[C@@H]2CO)[C@]2(C)N=C(/C(C)=C3N=C(/C=C4N=C1[C@@H](CCC(N)=O)C\4(C)C)[C@@H](CCC(N)=O)[C@]\3(C)CC(N)=O)[C@@H](CCC(N)=O)[C@]2(C)CC(N)=O.[Co+3].[OH-] [OH-Cbl, hydroxocobalamin]",concentrations of HO-Cbl versus control (water) values,"any of the solutions tested, any of the three challenge amounts",did not substantially exceed control values
same,Conc of OH-Cbl,"challenge 16.18 mg/mL, ethanol 0%, PG 0%, Day 0",0 µg/mL
same,Conc of OH-Cbl,"challenge 16.18 mg/mL, ethanol 0%, PG 0%, Day 3",16830 µg/mL
same,Conc of OH-Cbl,"challenge 16.18 mg/mL, ethanol 0%, PG 0%, Day 5",16930 µg/mL
same,Conc of OH-Cbl,"challenge 16.18 mg/mL, ethanol 0%, PG 20%, Day 0",0 µg/mL
same,Conc of OH-Cbl,"challenge 16.18 mg/mL, ethanol 0%, PG 20%, Day 3",17100 µg/mL
same,Conc of OH-Cbl,"challenge 16.18 mg/mL, ethanol 0%, PG 20%, Day 5",17310 µg/mL
same,Conc of OH-Cbl,"challenge 16.18 mg/mL, ethanol 0%, PG 40%, Day 0",0 µg/mL
same,Conc of OH-Cbl,"challenge 16.18 mg/mL, ethanol 0%, PG 40%, Day 3",16780 µg/mL
same,Conc of OH-Cbl,"challenge 16.18 mg/mL, ethanol 0%, PG 40%, Day 5",17100 µg/mL
same,Conc of OH-Cbl,"challenge 16.18 mg/mL, ethanol 15%, PG 0%, Day 0",0 µg/mL
same,Conc of OH-Cbl,"challenge 16.18 mg/mL, ethanol 15%, PG 0%, Day 3",16670 µg/mL
same,Conc of OH-Cbl,"challenge 16.18 mg/mL, ethanol 15%, PG 0%, Day 5",17060 µg/mL
same,Conc of OH-Cbl,"challenge 16.18 mg/mL, ethanol 15%, PG 20%, Day 0",0 µg/mL
same,Conc of OH-Cbl,"challenge 16.18 mg/mL, ethanol 15%, PG 20%, Day 3",16940 µg/mL
same,Conc of OH-Cbl,"challenge 16.18 mg/mL, ethanol 15%, PG 20%, Day 5",17440 µg/mL
same,Conc of OH-Cbl,"challenge 16.18 mg/mL, ethanol 20%, PG 0%, Day 0",0 µg/mL
same,Conc of OH-Cbl,"challenge 16.18 mg/mL, ethanol 20%, PG 0%, Day 3",17050 µg/mL
same,Conc of OH-Cbl,"challenge 16.18 mg/mL, ethanol 20%, PG 0%, Day 5",17140 µg/mL
same,Conc of OH-Cbl,"challenge 16.18 mg/mL, ethanol 20%, PG 40%, Day 0",0 µg/mL
same,Conc of OH-Cbl,"challenge 16.18 mg/mL, ethanol 20%, PG 40%, Day 3",16250 µg/mL
same,Conc of OH-Cbl,"challenge 16.18 mg/mL, ethanol 20%, PG 40%, Day 5",16590 µg/mL
same,Conc of OH-Cbl,"challenge 40.45 mg/mL, ethanol 0%, PG 0%, Day 0",0 µg/mL
same,Conc of OH-Cbl,"challenge 40.45 mg/mL, ethanol 0%, PG 0%, Day 3",41900 µg/mL
same,Conc of OH-Cbl,"challenge 40.45 mg/mL, ethanol 0%, PG 0%, Day 5",41680 µg/mL
same,Conc of OH-Cbl,"challenge 40.45 mg/mL, ethanol 0%, PG 20%, Day 0",0 µg/mL
same,Conc of OH-Cbl,"challenge 40.45 mg/mL, ethanol 0%, PG 20%, Day 3",41680 µg/mL
same,Conc of OH-Cbl,"challenge 40.45 mg/mL, ethanol 0%, PG 20%, Day 5",41470 µg/mL
same,Conc of OH-Cbl,"challenge 40.45 mg/mL, ethanol 0%, PG 40%, Day 0",0 µg/mL
same,Conc of OH-Cbl,"challenge 40.45 mg/mL, ethanol 0%, PG 40%, Day 3",41790 µg/mL
same,Conc of OH-Cbl,"challenge 40.45 mg/mL, ethanol 0%, PG 40%, Day 5",41790 µg/mL
same,Conc of OH-Cbl,"challenge 40.45 mg/mL, ethanol 15%, PG 0%, Day 0",0 µg/mL
same,Conc of OH-Cbl,"challenge 40.45 mg/mL, ethanol 15%, PG 0%, Day 3",41150 µg/mL
same,Conc of OH-Cbl,"challenge 40.45 mg/mL, ethanol 15%, PG 0%, Day 5",41470 µg/mL
same,Conc of OH-Cbl,"challenge 40.45 mg/mL, ethanol 15%, PG 20%, Day 0",0 µg/mL
same,Conc of OH-Cbl,"challenge 40.45 mg/mL, ethanol 15%, PG 20%, Day 3",41040 µg/mL
same,Conc of OH-Cbl,"challenge 40.45 mg/mL, ethanol 15%, PG 20%, Day 5",42220 µg/mL
same,Conc of OH-Cbl,"challenge 40.45 mg/mL, ethanol 20%, PG 0%, Day 0",0 µg/mL
same,Conc of OH-Cbl,"challenge 40.45 mg/mL, ethanol 20%, PG 0%, Day 3",41580 µg/mL
same,Conc of OH-Cbl,"challenge 40.45 mg/mL, ethanol 20%, PG 0%, Day 5",41040 µg/mL
same,Conc of OH-Cbl,"challenge 40.45 mg/mL, ethanol 20%, PG 40%, Day 0",0 µg/mL
same,Conc of OH-Cbl,"challenge 40.45 mg/mL, ethanol 20%, PG 40%, Day 3",41360 µg/mL
same,Conc of OH-Cbl,"challenge 40.45 mg/mL, ethanol 20%, PG 40%, Day 5",41580 µg/mL
same,Conc of OH-Cbl,"challenge 80.90 mg/mL, ethanol 0%, PG 0%, Day 0",0 µg/mL
same,Conc of OH-Cbl,"challenge 80.90 mg/mL, ethanol 0%, PG 0%, Day 3",81020 µg/mL
same,Conc of OH-Cbl,"challenge 80.90 mg/mL, ethanol 0%, PG 0%, Day 5",80800 µg/mL
same,Conc of OH-Cbl,"challenge 80.90 mg/mL, ethanol 0%, PG 20%, Day 0",0 µg/mL
same,Conc of OH-Cbl,"challenge 80.90 mg/mL, ethanol 0%, PG 20%, Day 3",83800 µg/mL
same,Conc of OH-Cbl,"challenge 80.90 mg/mL, ethanol 0%, PG 20%, Day 5",82090 µg/mL
same,Conc of OH-Cbl,"challenge 80.90 mg/mL, ethanol 0%, PG 40%, Day 0",0 µg/mL
same,Conc of OH-Cbl,"challenge 80.90 mg/mL, ethanol 0%, PG 40%, Day 3",81870 µg/mL
same,Conc of OH-Cbl,"challenge 80.90 mg/mL, ethanol 0%, PG 40%, Day 5",82730 µg/mL
same,Conc of OH-Cbl,"challenge 80.90 mg/mL, ethanol 15%, PG 0%, Day 0",0 µg/mL
same,Conc of OH-Cbl,"challenge 80.90 mg/mL, ethanol 15%, PG 0%, Day 3",82730 µg/mL
same,Conc of OH-Cbl,"challenge 80.90 mg/mL, ethanol 15%, PG 0%, Day 5",82940 µg/mL
same,Conc of OH-Cbl,"challenge 80.90 mg/mL, ethanol 15%, PG 20%, Day 0",0 µg/mL
same,Conc of OH-Cbl,"challenge 80.90 mg/mL, ethanol 15%, PG 20%, Day 3",81230 µg/mL
same,Conc of OH-Cbl,"challenge 80.90 mg/mL, ethanol 15%, PG 20%, Day 5",80160 µg/mL
same,Conc of OH-Cbl,"challenge 80.90 mg/mL, ethanol 20%, PG 0%, Day 0",0 µg/mL
same,Conc of OH-Cbl,"challenge 80.90 mg/mL, ethanol 20%, PG 0%, Day 3",82090 µg/mL
same,Conc of OH-Cbl,"challenge 80.90 mg/mL, ethanol 20%, PG 0%, Day 5",80590 µg/mL
same,Conc of OH-Cbl,"challenge 80.90 mg/mL, ethanol 20%, PG 40%, Day 0",0 µg/mL
same,Conc of OH-Cbl,"challenge 80.90 mg/mL, ethanol 20%, PG 40%, Day 3",82940 µg/mL
same,Conc of OH-Cbl,"challenge 80.90 mg/mL, ethanol 20%, PG 40%, Day 5",82730 µg/mL
